Assay results taken from US12533362B2, “Methods for treating diseases associated with ciliopathies” (ALEXION PHARMACEUTICALS, INC., priority 2017, dated 2026).

Experiments:
EP1 = molecular target: T1, EP1 (Mus musculus, UniProt P35375); conditions: cited from earlier work
T1 sequence (P35375 1-405): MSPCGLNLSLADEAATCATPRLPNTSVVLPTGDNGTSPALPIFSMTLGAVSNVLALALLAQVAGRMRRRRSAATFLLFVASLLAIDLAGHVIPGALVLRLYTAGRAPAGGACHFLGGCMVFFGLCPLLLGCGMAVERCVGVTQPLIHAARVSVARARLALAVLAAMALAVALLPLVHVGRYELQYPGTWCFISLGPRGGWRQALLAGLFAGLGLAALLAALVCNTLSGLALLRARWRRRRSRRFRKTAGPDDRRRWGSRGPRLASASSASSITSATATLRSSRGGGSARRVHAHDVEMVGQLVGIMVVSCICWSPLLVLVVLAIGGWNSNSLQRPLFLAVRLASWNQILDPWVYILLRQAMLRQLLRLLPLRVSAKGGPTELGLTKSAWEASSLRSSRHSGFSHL

[1] = test system: control normal epithelial cells; assay: automated cilia-based ciliogenesis assay in control normal epithelial cells; format: cell-based, human
From the text: (§1) To identify compounds for treating diseases associated with ciliopathies such as, for example, NPHP, NPHP patient-derived cells were obtained and cell lines were established. Briefly, peeled renal epithelial cells, which are mostly proximal tubule cells (tbc) recovered from urine of NPHP1-deficient patients, were immortalized by retroviral gene transfer of SV40 T antigen. Cells were fixed and fluorescence-labeled with Hoechst (for nuclei staining), anti-γ-tubulin antibody (for basal bodies staining), and anti-ARL13B antibody (for cilia staining) for detection using immunofluorescence microscopy.
(§2) Briefly, NPHP patient-derived cells and control cells were cultured in complete media, at 39C (non-permissive temperature for SV40 expression), followed by automatic cilia analysis using immunofluorescence microscopy to measure ciliogenesis, e.g., in terms of % cilia. A spinning disk platform may be used for drug screening (FIG. 5, A-J) and ciliogenesis analysis of G3 multi-OMICs dataset (FIG. 29, A-E).
The cilia-based assay described above may be used to identify compounds that restore ciliogenesis. […] Automated random acquisition of 35 images per well may be performed, for example. Each image may have z-stack of 10 images taken at <1 μm intervals. Consecutive imaging of nucleus (Hoechst at 461 nm), basal body (γ-tubulin at 555 nm) and cilia (ARL13b at 647 nm) may be obtained.

EP4 = EP4 (Mus musculus, UniProt P32240); conditions: cited from earlier work
EP4, sequence (P32240 whole entry): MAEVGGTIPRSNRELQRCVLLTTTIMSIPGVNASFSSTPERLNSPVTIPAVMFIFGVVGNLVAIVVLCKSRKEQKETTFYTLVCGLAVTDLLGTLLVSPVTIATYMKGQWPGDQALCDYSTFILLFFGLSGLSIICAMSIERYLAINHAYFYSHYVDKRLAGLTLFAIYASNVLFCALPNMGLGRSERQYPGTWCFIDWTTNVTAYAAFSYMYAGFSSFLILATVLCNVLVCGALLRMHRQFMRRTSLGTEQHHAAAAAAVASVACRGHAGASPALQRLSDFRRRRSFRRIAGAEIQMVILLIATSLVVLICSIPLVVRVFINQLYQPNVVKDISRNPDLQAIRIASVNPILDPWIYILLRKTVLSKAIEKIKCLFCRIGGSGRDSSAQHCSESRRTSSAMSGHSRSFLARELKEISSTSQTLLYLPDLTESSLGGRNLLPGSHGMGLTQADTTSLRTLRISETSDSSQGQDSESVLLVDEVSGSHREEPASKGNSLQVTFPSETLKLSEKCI

EP3 = molecular target: T2, EP3 (Mus musculus, UniProt P30557); conditions: cited from earlier work
T2 sequence (P30557 1-365): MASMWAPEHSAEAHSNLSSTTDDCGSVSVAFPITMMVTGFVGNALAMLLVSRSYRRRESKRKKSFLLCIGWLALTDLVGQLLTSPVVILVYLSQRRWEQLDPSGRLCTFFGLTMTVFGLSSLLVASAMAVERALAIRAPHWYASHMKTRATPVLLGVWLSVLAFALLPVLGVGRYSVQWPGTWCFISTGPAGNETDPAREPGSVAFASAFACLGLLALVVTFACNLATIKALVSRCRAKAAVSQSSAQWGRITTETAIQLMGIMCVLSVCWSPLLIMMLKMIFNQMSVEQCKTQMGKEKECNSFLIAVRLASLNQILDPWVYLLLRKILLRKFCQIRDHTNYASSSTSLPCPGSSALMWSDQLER

zebrafish NPHP4 MO = assay: zebrafish NPHP4 morpholino (MO) model; format: in vivo
Experimental: Briefly, wild-type Tg(wt1b:GFP) transgenic zebrafish embryos were injected with morpholino (e.g., nphp4 ATG MO) at one-cell stage. At 8 hours post-fertilization (hpf), injected embryos were treated with drug or vehicle in PTU-egg water (1 mL in 12-well plates). At 24 hpf, drug treatment was renewed, and pronase was added at 36 hpf for chorion removal.

[2] = test system: NPHP patient-derived cells; assay: automated cilia-based ciliogenesis assay in NPHP patient-derived cells; format: cell-based, human
From the text: as §1, §2
The cilia-based assay described above may be used to identify compounds that restore ciliogenesis. […] Automated random acquisition of 35 images per well may be performed, for example. Each image may have z-stack of 10 images taken at <1 μm intervals.

EP2 = EP2 (Mus musculus, UniProt Q62053); conditions: cited from earlier work
EP2, sequence (Q62053 whole entry): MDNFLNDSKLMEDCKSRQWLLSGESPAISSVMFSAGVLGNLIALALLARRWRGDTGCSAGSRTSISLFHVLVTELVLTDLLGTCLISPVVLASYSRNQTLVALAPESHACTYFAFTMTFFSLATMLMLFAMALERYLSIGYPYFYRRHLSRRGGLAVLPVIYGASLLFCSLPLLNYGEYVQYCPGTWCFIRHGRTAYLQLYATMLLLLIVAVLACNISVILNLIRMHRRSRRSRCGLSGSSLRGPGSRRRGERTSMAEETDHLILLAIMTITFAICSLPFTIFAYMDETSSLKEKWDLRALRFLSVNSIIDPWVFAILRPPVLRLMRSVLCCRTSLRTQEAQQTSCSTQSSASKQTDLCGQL

URECs = assay: microarray differential expression analysis of URECs; format: cell-based, human; conditions: for top regulated genes signaling pathway, microarray: DMSO vs 0.2 μM, 2 μM and 10 μM
Experimental: Microarray analysis was performed to identify expressed genes responsible for the alprostadil-mediated restoration of ciliogenesis.

[3] = meta-analysis, multiple NPHP patient-derived cell lines

CCCCC[C@H](O)/C=C/[C@H]1[C@H](O)CC(=O)[C@@H]1CCCCCCC(=O)O [alprostadil, prostaglandin E1]
IC50 (EP1): 36 nM | ciliogenesis, meta-analysis ([1]; 2 μM vs DMSO 0.04%, CTRL cells, FIG. 8A): does not significantly affect ciliogenesis | ciliogenesis rate ([1]; 2 μM vs DMSO, normal control cells, FIG. 11B): no significant effect on ciliogenesis rate | IC50 (EP4): 2.1 nM | IC50 (EP3): 1.1 nM | dorsal curvature (automated quantified parameter) (zebrafish NPHP4 MO; 0.5 μM and 5 μM vs DMSO): did not significantly affect dorsal curvature | body axis curvature (normal, class I, class II, class III) (zebrafish NPHP4 MO; 0.5 μM and 5 μM vs DMSO, p>0.05 Fischer's exact test): did not significantly affect body axis curvature | percentage of severe pronephric cysts (zebrafish NPHP4 MO; 0.5 μM vs DMSO, p<0.05 Fischer's exact test): significantly reduced the percentage of severe pronephric cysts | percentage of severe pronephric cysts (zebrafish NPHP4 MO; 5 μM vs DMSO): significantly reduced the percentage of severe pronephric cysts | ciliogenesis rate ([2]; 2 μM vs DMSO, NPHP1(del) cell lines PT1, 1-03-P, 1-06-P1, 1-06-P2, 1-09-P, 1-10-P, 1-12-P, FIG. 11B): significantly increases ciliogenesis rate | % ciliated cells, dose response ([2]; alprostadil titration from 1 nM to 2 μM and from 100 pM to 2 μM, FIG. 7): significantly increases % ciliated cells in a dose-dependent manner | effect on ciliogenesis (percentage of ciliated cells) as compared with DMSO ([2]; drug screening, various tested concentrations, FIG. 5 / FIG. 6): significantly restored ciliogenesis | % ciliated cells, multi-omics phenotypic analysis ([2]; five independent experiments, FIGS. 26A-26E): partially restores ciliogenesis | increase in the effect on ciliogenesis in NPHP patient-derived cells versus control (DMSO 0.04%) ([2]; meta-analysis, FIG. 8C): about two-fold | linear regression pooled slope value of effect on ciliogenesis [2, 3]: 1.414 | linear regression range of slope values of effect on ciliogenesis [2, 3]: 1.333 to 1.506 | ciliogenesis, meta-analysis ([2]; vs DMSO 0.04%, PT1 cells, FIG. 8B): significantly increases ciliogenesis | IC50 (EP2): 10 nM | top regulated genes signaling pathway, microarray (URECs; Qiazol extraction): down-regulation of cell adhesion and extracellular matrix, and up-regulation of interferon signaling | top regulated genes signaling pathway, microarray (URECs; RLT extraction): down-regulation of cell adhesion and extracellular matrix | alteration in gene expression in NPHP patient-derived cells compared to control cells (URECs; pathway analysis crossing microarray data with RNAseq of control vs patient): could reverse alteration in gene expression
